Reference: patent publication US20070027143A1, “Novel substituted 2,3-benzodiazepine derivatives” (priority 2003, published 2007)

Compound | melting point
Cc1nnc(N2N=C(c3ccc(N)cc3)c3cc(Cl)ccc3CC2C)s1 (racemic) [Example 94, (±)-1-(4-Aminophenyl)-8-chloro-4-methyl-3-(5-methyl-1,3,4-thiadiazol-2-yl)-4,5-dihydro-3H-[2,3]benzodiazepine] | 131 to 133 °C
Cc1nnc(N2N=C(c3ccc(N)c(C)c3)c3cc4c(cc3CC2C)OCO4)s1 (racemic) [Example 95, (±)-5-(4-Amino-3-methylphenyl)-8-methyl-7-(5-methyl-1,3,4-thiadiazol-2-yl)-8,9-dihydro-7H-1,3-dioxolo-[4,5-h][2,3]benzodiazepine] | 140 to 144 °C
Cc1nnc(N2N=C(c3cccc(N)c3)c3cc4c(cc3CC2C)OCO4)s1 (racemic) [Example 97, (±)-5-(3-Aminophenyl)-8-methyl-7-(5-methyl-1,3,4-thiadiazol-2-yl)-8,9-dihydro-7H-1,3-dioxolo-[4,5-h][2,3]benzodiazepine] | 197 to 198 °C
COc1ccc2c(c1)C(c1ccc(N)cc1)=NN(c1nnc(C)s1)C(C)C2 (racemic) [Example 98, (±)-1-(4-Aminophenyl)-4-methyl-3-(5-methyl-1,3,4-thiadiazol-2-yl)-8-methoxy-4,5-dihydro-3H-[2,3]benzodiazepine] | 180 to 184 °C
CC1Cc2cc3c(cc2C(c2ccc(N)cc2)=NN1c1nc(C(=O)O)cs1)OCO3 (racemic) [Example 106, (±)-5-(4-Aminophenyl)-7-(4-carboxy-thiazol-2-yl)-8-methyl-8,9-dihydro-7H-1,3-dioxolo-[4,5-h][2,3]benzodiazepine] | > 260 °C (dec.)
CC1Cc2cc3c(cc2C(c2ccc(N)cc2)=NN1c1ncccn1)OCO3 (racemic) [Example 111, (±)-5-(4-Aminophenyl)-8-methyl-7-(2-pyrimidinyl)-8,9-dihydro-7H-1,3-dioxolo[4,5-h][2,3]benzodiazepine] | 233 to 235 °C
CC(=O)Nc1ccc(C2=NN(c3ncc(C)s3)C(C)Cc3cc4c(cc32)OCO4)cc1 (racemic) [Example 120, (±)-5-(4-Acetylaminophenyl)-8-methyl-7-(5-methyl-thiazol-2-yl)-8,9-dihydro-7H-1,3-dioxolo-[4,5-h][2,3]benzodiazepine] | 176 to 179 °C
CC(=O)Nc1ccc(C2=NN(C3=NCCS3)C(C)Cc3cc4c(cc32)OCO4)cc1 (racemic) [Example 122, (±)-5-(4-Acetylaminophenyl)-7-(4,5-dihydro-thiazol-2-yl)-8-methyl-8,9-dihydro-7H-1,3-dioxolo-[4,5-h][2,3]benzodiazepine] | 211 to 213 °C
CC(=O)Nc1ccc(C2=NN(C3=NCCO3)C(C)Cc3cc4c(cc32)OCO4)cc1 (racemic) [Example 127, (±)-5-(4-Acetylaminophenyl)-7-(4,5-dihydro-oxazol-2-yl)-8-methyl-8,9-dihydro-7H-1,3-dioxolo-[4,5-h][2,3]benzodiazepine] | 124 to 128 °C

The remaining lines, values ahead:

melting point | Compound
154 to 157 °C | CC1=NN=C(N2N=C(c3ccc(N)cc3)c3cc4c(cc3CC2C)OCO4)SC1 (racemic) [Example 99, (±)-5-(4-Aminophenyl)-8-methyl-7-(5-methyl-6H-1,3,4-thiadiazin-2-yl)-8,9-dihydro-7H-1,3-dioxolo-[4,5-h][2,3]benzodiazepine]
172 to 176 °C | CC1Cc2cc3c(cc2C(c2ccc(N)cc2)=NN1C1=NNC(=O)CS1)OCO3 (racemic) [Example 100, (±)-5-(4-Aminophenyl)-7-(5,6-dihydro-5-oxo-4H-1,3,4-thiadiazin-2-yl)-8-methyl-8,9-dihydro-7H-1,3-dioxolo[4,5-h][2,3]benzodiazepine]
263 to 264 °C | CC1Cc2cc3c(cc2C(c2ccc(N)cc2)=NN1c1n[nH]c(=O)s1)OCO3 (racemic) [Example 101, (±)-5-(4-Aminophenyl)-8-methyl-7-(5-oxo-4,5-dihydro-1,3,4-thiadiazol-2-yl)-8,9-dihydro-7H-1,3-dioxolo-[4,5-h][2,3]benzodiazepine]
213 °C | CC1Cc2cc3c(cc2C(c2ccc(N)cc2)=NN1c1nc(=O)n(C)s1)OCO3 (racemic) [Example 103, (±)-5-(4-Aminophenyl)-8-methyl-7-(2-methyl-3-oxo-2,3-dihydro-1,2,4-thiadiazol-5-yl)-8,9-dihydro-7H-1,3-dioxolo[4,5-h][2,3]benzodiazepine]
> 360 °C | CC1Cc2cc3c(cc2C(c2ccc(N)cc2)=NN1c1nnn[nH]1)OCO3 (racemic) [Example 107, (±)-5-(4-Aminophenyl)-8-methyl-7-(5-tetrazolyl)-8,9-dihydro-7H-1,3-dioxolo[4,5-h][2,3]benzodiazepine]
130 to 135 °C | Cc1nc(N2N=C(c3ccc(N)cc3)c3cc4c(cc3CC2C)OCO4)no1 (racemic) [Example 109, (±)-5-(4-Aminophenyl)-8-methyl-7-(5-methyl-1,2,4-oxadiazol-3-yl)-8,9-dihydro-7H-1,3-dioxolo-[4,5-h][2,3]benzodiazepine]
132 to 135 °C | Cc1nc(N2N=C(c3ccc(N)cc3)c3cc4c(cc3CC2C)OCO4)cs1 (racemic) [Example 110, (±)-5-(4-Aminophenyl)-8-methyl-7-(2-methyl-thiazol-4-yl)-8,9-dihydro-7H-1,3-dioxolo-[4,5-h][2,3]benzodiazepine]
164 to 166 °C | CC1Cc2cc3c(cc2C(c2ccc(N)cc2)=NN1c1ccc(Cl)nn1)OCO3 (racemic) [Example 112, (±)-5-(4-Aminophenyl)-7-(3-chloropyridazin-6-yl)-8-methyl-8,9-dihydro-7H-1,3-dioxolo-[4,5-h][2,3]benzodiazepine]
178 to 181 °C | CC1Cc2cc3c(cc2C(c2ccc(N)cc2)=NN1C1N=CNN1)OCO3 (racemic) [Example 113, (±)-5-(4-Aminophenyl)-8-methyl-7-(1H(2H)1,2,4-triazol-3-yl)-8,9-dihydro-7H-1,3-dioxolo-[4,5-h][2,3]benzodiazepine]
166 to 169 °C | CC1=NC(N2N=C(c3ccc(N)cc3)c3cc4c(cc3CC2C)OCO4)NN1 (racemic) [Example 114, (±)-5-(4-Aminophenyl)-8-methyl-7-(5-methyl-1H(2H)-1,2,4-triazol-3-yl)-8,9-dihydro-7H-1,3-dioxolo-[4,5-h][2,3]benzodiazepine]
182 to 183 °C | CC1Cc2cc3c(cc2C(c2ccc(N)cc2)=NN1c1ncnn1C)OCO3 (racemic) [Example 115, (±)-5-(4-Aminophenyl)-8-methyl-7-(2-methyl-2H-1,2,4-triazol-3-yl)-8,9-dihydro-7H-1,3-dioxolo-[4,5-h][2,3]benzodiazepine]
165 to 168 °C | CC1Cc2cc3c(cc2C(c2ccc(N)cc2)=NN1c1ncn(C)n1)OCO3 (racemic) [Example 116, (±)-5-(4-Aminophenyl)-8-methyl-7-(1-methyl-1H-1,2,4-triazol-3-yl)-8,9-dihydro-7H-1,3-dioxolo-[4,5-h][2,3]benzodiazepine]
185 to 187 °C | Cc1nc(N2N=C(c3ccc(N)cc3)c3cc4c(cc3CC2C)OCO4)n(C)n1 (racemic) [Example 117, (±)-5-(4-Aminophenyl)-8-methyl-7-(2,5-dimethyl-2H-1,2,4-triazol-3-yl)-8,9-dihydro-7H-1,3-dioxolo-[4,5-h][2,3]benzodiazepine]
